Data taken from article PMC9406419, “OATD-02 Validates the Benefits of Pharmacological Inhibition of Arginase 1 and 2 in Cancer” (Cancers, 2022).

System: CT26 tumours
Experiment: Syngeneic CT26 model, combination with epacadostat and anti-PD-L1 antibody
Type: in vivo, mouse
Settings: suboptimal doses: OATD-02 50 mg/kg PO BID; epacadostat 30 mg/kg PO BID; anti-PD-L1 2.5 mg/kg IP days 8, 10, 12, 14, 16
Description: CT26 and K562 in vivo experiments were conducted at Molecure SA. All experimental procedures were approved by the 1st Local Ethics Committee in Warsaw (Poland). For the syngeneic CT26 model, 7–8-week old BALB/c females (n = 9–18 per group, BALB/cAnNCrl, Charles River Laboratories) were injected subcutaneously in the right flank with 5 × 10^5 CT26 cells. […] Anti-PD-L1 antibody (InVivoPlus anti-mouse PD-L1, clone 10F.9G2, BioXCell, lot 615416D1) was injected intraperitoneally at 2.5 mg/kg on days: 8, 10, 12, 14 and 16 post tumour cells inoculation. Control groups received vehicle (saline) or isotype antibody (InVivoPlus rat IgG2b, anti-KLH, BioXCell, lot 629816D1). For the xenograft K562 model, 7–8 week-old athymic nude mice (n = 8–11 per group, Crl:NU(NCr)-Foxn1^nu, Charles River Laboratories) or NK cell-deficient Fox Chase SCID Beige mice (n = 10–12 per group, CB17.Cg-Prkdc^scidLyst^bg-J/Crl, Charles River Laboratories) were injected subcutaneously in the right flank with 1 × 10^7 K562 cells. […] Tumour volume measured by a digital calliper (width × length × depth × π/6) was recorded three times per week. Animals were euthanized when tumours were necrotized or volume exceeded 2000 mm^3. Renca in vivo efficacy study was performed at Crown Biosciences Inc. (Taicang, China). […] Tumour volumes (length × width^2 × 0.5) were measured twice per week. […]

`NS(=O)(=O)NCCNc1nonc1C(=NO)Nc1ccc(F)c(Br)c1` [epacadostat, reference compound] was tested, and the “TGI, CT26 tumor growth inhibition - day 24” value was 41%.
